The values that follow come from patent US11541056B2, “3-hydroxy-N-(3-(7H-pyrrolo[2,3-d]pyrimidin-4-yl)phenyl)pyrrolidine-1-carboxamide derivatives” (NOVARTIS AG, priority 2018, dated 2023).

The target of one test is T1, IKZF3-GFP (Homo sapiens, UniProt Q9UKT9).
T1 construct: gateway cloning of IKZF3 from a pENTR221-IKZF3(STOP-Leu) construct into the previously described pLenti6-DEST-GFP-Ires-RFP vector; expressed in transfected cells; host or cells: HEK293A cells (Invitrogen R70507), lentiviral transduction with pLenti6-IKZF3-GFP-Ires-RFP, blasticidin-selected
In words: IKZF3-GFP protein abundance flow cytometry assay in HEK293A cells. To be noted: 24 h, Table 1; for IKZF3 deg Amax %: % protein remaining at maximum degradation. The class given is cell-based. How it is done:
Compounds of the invention were tested in the following cellular assays. […] TMD8 cells are BTK dependent and OCI-LY3 cells are BTK independent.
BTK-GFP and IKZF3-GFP Protein Abundance Flow Cytometry Assay in HEK293A Cells:
Degradation of BTK or IKZF3 was measured in HEK293A cells (Invitrogen R70507) expressing either BTK-GFP and RFP or IKZF3-GFP and RFP from a stably integrated bicistronic BTK-GFP-iresRFP or IKZF3-GFP-iresRFP construct, respectively. Reduction of the GFP signal measured by flow cytometry served as readout for BTK or IKZF3 degradation after degrader treatment.
Stable HEK293A-BTK-GFP-iresRFP cells were maintained in complete growth medium (DMEM high Glucose+10% FCS+1% L-Glutamine+1% NEAA+1% NaPyr.) with passaging performed twice per week. On Day 0, HEK293A-BTK-GFP-iresRFP or HEK293A-IKZF3-GFP-iresRFP and HEK293A-iresRFP cells were seeded at 10,000 cells/well in a 96-well microtiter plate in 260 μl complete medium. On Day 1, cells were treated in duplicate with 10-point 1:3 dilution series of compound using the HP D300 Digital Dispenser (Tecan). DMSO concentrations were normalized across the plate to 0.1%. On Day 2, after 24 h of incubation at 37° C., treatment media was discarded, cells rinsed with 100 ul/well PBS and then detached using 40 ul trypsin/well for 5 min. Trypsin was neutralized with 100 ul/well PBS+20% FCS). Flow cytometry was performed on the samples using the BD FACS CANTO II (Becton Dickinson). Cell identification was then performed using forward (FSC) vs. side scatter (SSC) plots. Single cell discrimination is performed using SSC-Width (SSC-W) vs. SSC-Height (SSC-H) plots. Median GFP values for 5,000 single cells are used to determine BTK levels. Median GFP values from HEK293A-iresRFP are used as a background signal and thus defining 0% BTK signal. Median GFP values from DMSO treated HEK293A-BTK-GFP-iresRFP or HEK293A-IKZF3-GFP-iresRFP are used to define 100% BTK signal for subsequent DC50 curves (concentration at 50% BTK degradation). GFP and RFP are read in the channels called FITC and PE, respectively.
Concentration response curves plotting relative reduction of the GFP signal (measured by flow cytometry) versus 10 compound concentrations (starting concentration 10 μM, 3 fold dilution steps) of the compounds allowed generation of DC50 values.
Data is shown in Table 2, in which, DC50 refers to the concentration at which 50% maximal degradation was observed; deg Amax is the extent of degradation and the value refers to the % protein remaining at the concentration at which maximum degradation is seen.
(A flow cytometer gives signals particle by particle.)

A further test deals with TMD8 cells. In words: Resazurin cell viability assay in DLBCL cells (TMD8). The class given is cell-based. To be noted: Homo sapiens, TMD8, 72 h, TMD8 cells (BTK dependent), 50% growth inhibition, read-out: TMD8 Prol GI50. A digest of the protocol: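 Cells seeded at 1×10^4 per well in triplicate, treated 3 h later for 72 h with an 8-point 1:4 dilution series starting at 1 μM. Resazurin (13 μg/ml final) added for the last 2 h; resorufin fluorescence read at 530/600 nm. GI50 versus vehicle control, usually from ≥2 independent experiments.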
In general terms: The colour change of resazurin is a common sign of viable cells or microbes.

T1 sequence (Q96SW2 whole entry partner): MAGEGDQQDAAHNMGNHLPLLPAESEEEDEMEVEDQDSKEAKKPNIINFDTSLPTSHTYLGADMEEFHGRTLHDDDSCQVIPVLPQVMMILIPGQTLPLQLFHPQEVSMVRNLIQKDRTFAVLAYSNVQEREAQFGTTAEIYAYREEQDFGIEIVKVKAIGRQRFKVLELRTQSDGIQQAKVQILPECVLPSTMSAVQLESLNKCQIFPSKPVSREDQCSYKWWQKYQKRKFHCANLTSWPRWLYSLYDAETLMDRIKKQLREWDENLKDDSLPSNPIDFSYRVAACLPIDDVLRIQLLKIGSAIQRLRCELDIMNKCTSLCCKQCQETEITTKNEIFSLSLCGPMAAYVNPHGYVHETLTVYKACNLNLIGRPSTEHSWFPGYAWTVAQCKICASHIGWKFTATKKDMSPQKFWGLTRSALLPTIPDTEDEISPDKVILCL
T1 sequence (Q16531 whole entry partner): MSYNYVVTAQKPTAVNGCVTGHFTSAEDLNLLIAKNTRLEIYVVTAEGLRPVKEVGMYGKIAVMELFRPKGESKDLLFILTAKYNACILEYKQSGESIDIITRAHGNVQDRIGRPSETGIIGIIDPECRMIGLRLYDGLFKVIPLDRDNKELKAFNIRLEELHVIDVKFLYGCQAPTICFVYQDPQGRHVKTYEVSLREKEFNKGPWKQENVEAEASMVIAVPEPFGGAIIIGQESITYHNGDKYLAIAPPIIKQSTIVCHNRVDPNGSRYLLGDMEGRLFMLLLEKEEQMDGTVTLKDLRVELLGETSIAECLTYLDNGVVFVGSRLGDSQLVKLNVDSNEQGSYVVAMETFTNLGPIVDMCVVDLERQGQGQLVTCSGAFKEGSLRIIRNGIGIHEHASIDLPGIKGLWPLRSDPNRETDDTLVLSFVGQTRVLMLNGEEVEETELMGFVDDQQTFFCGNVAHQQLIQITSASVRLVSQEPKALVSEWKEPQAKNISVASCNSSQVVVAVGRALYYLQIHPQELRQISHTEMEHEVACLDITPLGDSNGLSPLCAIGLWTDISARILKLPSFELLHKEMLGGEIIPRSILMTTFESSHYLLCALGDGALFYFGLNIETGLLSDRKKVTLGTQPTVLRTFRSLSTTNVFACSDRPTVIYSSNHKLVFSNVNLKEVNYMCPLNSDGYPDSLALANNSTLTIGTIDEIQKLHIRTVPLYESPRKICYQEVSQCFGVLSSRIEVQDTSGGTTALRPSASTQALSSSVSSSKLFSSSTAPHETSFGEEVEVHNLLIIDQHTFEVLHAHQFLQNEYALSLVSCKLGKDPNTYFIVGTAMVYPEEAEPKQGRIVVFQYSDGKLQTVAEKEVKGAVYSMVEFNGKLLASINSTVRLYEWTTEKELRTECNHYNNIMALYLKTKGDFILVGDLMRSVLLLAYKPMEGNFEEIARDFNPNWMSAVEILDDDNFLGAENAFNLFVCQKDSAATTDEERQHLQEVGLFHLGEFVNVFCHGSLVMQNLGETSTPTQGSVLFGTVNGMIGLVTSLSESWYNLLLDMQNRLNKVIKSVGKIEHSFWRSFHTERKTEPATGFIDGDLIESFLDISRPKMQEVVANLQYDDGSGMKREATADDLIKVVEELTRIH
T1 sequence (Q9UKT9 whole entry): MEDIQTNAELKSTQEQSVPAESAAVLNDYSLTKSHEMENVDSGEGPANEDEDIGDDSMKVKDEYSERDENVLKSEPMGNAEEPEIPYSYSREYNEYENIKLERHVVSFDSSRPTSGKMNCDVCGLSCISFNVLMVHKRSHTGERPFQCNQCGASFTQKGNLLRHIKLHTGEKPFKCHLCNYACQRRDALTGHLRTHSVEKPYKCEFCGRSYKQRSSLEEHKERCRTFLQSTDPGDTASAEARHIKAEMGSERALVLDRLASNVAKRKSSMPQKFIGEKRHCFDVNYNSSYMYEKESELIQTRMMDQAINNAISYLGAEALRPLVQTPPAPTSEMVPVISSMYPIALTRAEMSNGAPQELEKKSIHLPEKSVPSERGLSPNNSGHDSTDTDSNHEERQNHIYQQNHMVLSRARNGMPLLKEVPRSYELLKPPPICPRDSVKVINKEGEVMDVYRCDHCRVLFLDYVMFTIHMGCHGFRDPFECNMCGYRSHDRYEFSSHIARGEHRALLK

What is called GI50 is the concentration that inhibits growth by half. Turning to `COc1ccc(C(=O)N2CCC3(CCN(CCc4ccc(-c5cc6c(-c7cc(F)cc(NC(=O)N8C[C@H](CC(C)C)[C@@H](O)C8)c7C)ncnc6[nH]5)cc4)CC3)CC2)cc1N1CCC(=O)NC1=O` [Compound 15, (3R,4S)—N-(3-(6-(4-(2-(9-(3-(2,4-Dioxotetrahydropyrimidin-1(2H)-yl)-4-methoxybenzoyl)-3,9-diazaspiro[5.5]undecan-3-yl)ethyl)phenyl)-7H-pyrrolo[2,3-d]pyrimidin-4-yl)-5-fluoro-2-methylphenyl)-3-hydroxy-4-isobutylpyrrolidine-1-carboxamide], at IKZF3-GFP, the “IKZF3 deg Amax %” value is 100.2% and the DC50 is more than 5500 nM. In the test with TMD8 cells, the GI50 is 0.22 nM.
For `COc1ccc(C(=O)N2CCC3(CCN(CCc4ccc(-c5cc6c(-c7cc(F)cc(NC(=O)N8C[C@@H](CC(C)C)[C@H](O)C8)c7C)ncnc6[nH]5)cc4)CC3)CC2)cc1N1CCC(=O)NC1=O` [Compound 19, (3S,4R)—N-(3-(6-(4-(2-(9-(3-(2,4-dioxotetrahydropyrimidin-1(2H)-yl)-4-methoxybenzoyl)-3,9-diazaspiro[5.5]undecan-3-yl)ethyl)phenyl)-7H-pyrrolo[2,3-d]pyrimidin-4-yl)-5-fluoro-2-methylphenyl)-3-hydroxy-4-isobutylpyrrolidine-1-carboxamide], on IKZF3-GFP, the “IKZF3 deg Amax %” value came out at 102.4% and the DC50 was more than 1100 nM. In addition, the GI50 with TMD8 cells turned out to be 4.87 nM.
Turning to `COc1ccc(C(=O)N2CCC(CCN3CCC(OCc4ccc(-c5cc6c(-c7cc(F)cc(NC(=O)N8C[C@H](CC(C)C)[C@@H](O)C8)c7C)ncnc6[nH]5)cc4)CC3)CC2)cc1N1CCC(=O)NC1=O` [Compound 22, (3R,4S)—N-(3-(6-(4-(((1-(2-(1-(3-(2,4-Dioxotetrahydropyrimidin-1 (2H)-yl)-4-methoxybenzoyl)piperidin-4-yl)ethyl)piperidin-4-yl)oxy)methyl)phenyl)-7H-pyrrolo[2,3-d]pyrimidin-4-yl)-5-fluoro-2-methylphenyl)-3-hydroxy-4-isobutylpyrrolidine-1-carboxamide], at IKZF3-GFP, the “IKZF3 deg Amax %” value is 100.2% and the DC50 was more than 1100 nM. In the test with TMD8 cells, the GI50 was 0.23 nM.
